How the values were obtained:
human TRPM8 = target: T1, human TRPM8 (Homo sapiens, UniProt Q7Z2W7); assay: TRPM8 calcium assay (Fluo-8, FLIPR) in transfected CHO cells; assay type: cell-based; conditions: x Menthol
T1 construct: host or cells: CHO cells, stably transfected
Procedure: Compounds were tested on Chinese Hamster Ovary (CHO) cells stably transfected with human TRPM8 cDNAs using a Fluo-8 calcium kit and a Fluorescence Imaging Plate Reader ([…]™) instrument. […] Solutions were prepared by diluting stock solutions in a HEPES-buffered physiological saline (HBPS) solution. Test compound and control formulations were loaded in polypropylene or glass-lined 384-well plates, and placed into the FLIPR instrument (Molecular Devices Corporation, Union City, CA, USA). Each was tested at 8 concentrations with n = 4 replicates per determination. […] For […]™ assay, cells were plated in 384-well black wall, flat clear-bottom microtiter plates (Type: BD Biocoat Poly-D-Lysine Multiwell Cell Culture Plate) at approximately 30,000 cells per well. Cells were incubated at 37 °C overnight to reach a near confluent monolayer appropriate for use in a fluorescence assay. The test procedure was to remove the growth media and to add 40 μL of HBPS containing Fluo-8 for 30 min at 37 °C. 10 μL of test compound, vehicle, or control solutions in HBPS were added to each well and read for 4 min. Concentration-response data were analyzed via the FLIPR Control software that is supplied with the FLIPR System (MDS-AT) and fitted to a Hill equation.

[1] = system: hNav1.7 (sodium channels); design: method as in ref 63 = [63]; 63. Wei ET. Design of Topical Sensory/cooling TRPM8 agonists for cough. Abstracts of the First International Cough Conference, Guangzhou, China, November 10–11, 2013.; conditions: 5 μM; cited from earlier work
cornea = system: cornea; design: method as in ref 62 = [62]; 62. Sung MS, Lee HS, Yang JM, Kim JG, Wei ET, Kim SJ, Yoon KC. paper presented at the 111th Annual Meeting of the Korean Ophthalmological Society, Busan, South Korea. 2014.; conditions: 2 mg/mL solution sprayed onto the closed eyelid; cited from earlier work
[2] = design: method as in ref 28 = [28]; 28. Wei ET. Topical agents for the treatment of sensory discomfort in the nasal membranes. US20150265752 A1, Sept. 24, 2015.; conditions: cited from earlier work
eye = conditions: cited from earlier work
mouse TRPV1 = target: T2, mouse TRPV1 (Mus musculus, UniProt Q704Y3); assay: TRPV1 calcium imaging (Fura-2) in transfected KNRK cells; assay type: cell-based; conditions: 10 μM
T2 construct: expressed in transfected cells; host or cells: KNRK cells (rat kidney), transiently transfected
Procedure: (§1) To further examine the specificity of C3, tests were conducted on TRPV1 channels and TRPA1 channels expressed in Kirsten murine sarcoma virus transformed rat kidney (KNRK) cells. KNRK cells were cultured as a monolayer and maintained in Dulbeccos’s Modified Eagles’s Medium (Life Technologies), supplemented with 10% fetal bovine serum (Life Technologies), 100 units/mL penicillin and 100 μg/mL streptomycin, in an incubator of 5% CO2 at 37 °C. After suspension, the cells were coated on cover slips for 12 h, then transiently transfected with cDNA (pc3.1 DNA) for TRPV1 or TRPA1 with Lipofectamine 2000 (Invitrogen) for 24 h, and loaded with Fura-2 AM™ (Molecular Probes) for 40 min at 37 °C. After washing and recovery, KNRK cells were imaged at 340 and 380 nm excitation to detect free calcium influx. An increase of 50% of the 340/380 ratio was considered as the response threshold which were measured under masked conditions for plasmids. Compounds were applied to the bath and calcium response was acquired by an inverted Nikon fluorescence microscope with a CoolSnap HQ2 CCD camera (Photometrics, Tucson, AZ). Data were quantified offline with the Nikon-NIS program.

TRPM8-sensory neurons = assay: Calcium imaging of primary sensory neurons from Trpm8 EGFP mice; assay type: cell-based, mouse; conditions: menthol 100 μM
Procedure: Calcium imaging was used to test the C3 selectivity on TRPM8-sensory neurons. Trpm8 ^+/EGFPmice were gifted by Dr. Yu-Qing Cao, Pain Center of Washington University in Saint Louis, School of Medicine, Missouri. Trigeminal ganglions and dorsal root ganglions from 4 to 5 weeks old mice were collected after CO2 euthanasia and digested for 30–40 min before plated on cover slips (8 mm), which were coated with poly-D-lysine for 40 min before use. Cover slips were gently washed with culture media to remove myelin after incubating for 35–40 min. Calcium imaging was done after incubation overnight at 37 °C, 5% CO2. Neurons were loaded with Fura-2 AM™ (Molecular Probes) for 30 min at room temperature. After washing and recovery, neurons were imaged at 340 and 380 nm excitation to detect free calcium influx. An increase of 50% of the 340/380 ratio was considered as the response threshold which were measured under blinded conditions for genotypes. Compounds were applied to the bath and calcium response was acquired by an inverted Nikon fluorescence microscope with a CoolSnap HQ2 CCD camera (Photometrics, Tucson, AZ). Data was quantified offline with the Nikon-NIS program.

human TRPA1 = target: T3, human TRPA1 (Homo sapiens, UniProt O75762); assay: TRPA1 calcium imaging (Fura-2) in transfected KNRK cells; assay type: cell-based; conditions: positive control, 100 μM
T3 construct: expressed in transfected cells; host or cells: KNRK cells (rat kidney), transiently transfected
Procedure: as §1

T1 sequence (Q7Z2W7 whole entry): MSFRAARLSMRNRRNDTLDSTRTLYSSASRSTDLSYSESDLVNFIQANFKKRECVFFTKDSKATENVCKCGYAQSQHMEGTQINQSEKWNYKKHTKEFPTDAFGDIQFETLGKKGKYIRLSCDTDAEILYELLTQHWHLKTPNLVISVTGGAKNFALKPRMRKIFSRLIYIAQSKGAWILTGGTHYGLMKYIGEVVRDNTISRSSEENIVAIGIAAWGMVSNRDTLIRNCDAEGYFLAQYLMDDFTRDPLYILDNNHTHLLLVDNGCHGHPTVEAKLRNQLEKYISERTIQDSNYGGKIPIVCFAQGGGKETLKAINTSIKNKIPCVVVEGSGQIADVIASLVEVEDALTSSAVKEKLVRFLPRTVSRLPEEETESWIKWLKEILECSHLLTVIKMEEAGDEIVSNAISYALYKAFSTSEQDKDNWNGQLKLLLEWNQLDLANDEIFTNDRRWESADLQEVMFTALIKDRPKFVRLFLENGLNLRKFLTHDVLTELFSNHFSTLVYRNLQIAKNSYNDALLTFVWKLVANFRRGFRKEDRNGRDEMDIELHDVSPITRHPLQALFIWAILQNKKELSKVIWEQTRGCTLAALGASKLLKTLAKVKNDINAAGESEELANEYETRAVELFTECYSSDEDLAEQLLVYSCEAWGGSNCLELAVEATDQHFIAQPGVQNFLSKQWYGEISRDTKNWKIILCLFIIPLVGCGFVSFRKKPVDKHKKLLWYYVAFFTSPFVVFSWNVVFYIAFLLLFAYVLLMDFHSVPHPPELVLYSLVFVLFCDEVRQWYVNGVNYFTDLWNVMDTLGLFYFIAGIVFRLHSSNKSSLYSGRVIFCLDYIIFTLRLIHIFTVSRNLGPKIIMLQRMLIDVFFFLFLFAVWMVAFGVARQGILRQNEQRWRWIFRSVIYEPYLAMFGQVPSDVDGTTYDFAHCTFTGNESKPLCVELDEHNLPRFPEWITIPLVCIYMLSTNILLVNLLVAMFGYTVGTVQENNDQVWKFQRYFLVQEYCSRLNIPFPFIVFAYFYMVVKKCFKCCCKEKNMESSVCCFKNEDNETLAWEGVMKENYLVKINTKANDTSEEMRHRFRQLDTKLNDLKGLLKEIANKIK
T2 sequence (Q704Y3 whole entry): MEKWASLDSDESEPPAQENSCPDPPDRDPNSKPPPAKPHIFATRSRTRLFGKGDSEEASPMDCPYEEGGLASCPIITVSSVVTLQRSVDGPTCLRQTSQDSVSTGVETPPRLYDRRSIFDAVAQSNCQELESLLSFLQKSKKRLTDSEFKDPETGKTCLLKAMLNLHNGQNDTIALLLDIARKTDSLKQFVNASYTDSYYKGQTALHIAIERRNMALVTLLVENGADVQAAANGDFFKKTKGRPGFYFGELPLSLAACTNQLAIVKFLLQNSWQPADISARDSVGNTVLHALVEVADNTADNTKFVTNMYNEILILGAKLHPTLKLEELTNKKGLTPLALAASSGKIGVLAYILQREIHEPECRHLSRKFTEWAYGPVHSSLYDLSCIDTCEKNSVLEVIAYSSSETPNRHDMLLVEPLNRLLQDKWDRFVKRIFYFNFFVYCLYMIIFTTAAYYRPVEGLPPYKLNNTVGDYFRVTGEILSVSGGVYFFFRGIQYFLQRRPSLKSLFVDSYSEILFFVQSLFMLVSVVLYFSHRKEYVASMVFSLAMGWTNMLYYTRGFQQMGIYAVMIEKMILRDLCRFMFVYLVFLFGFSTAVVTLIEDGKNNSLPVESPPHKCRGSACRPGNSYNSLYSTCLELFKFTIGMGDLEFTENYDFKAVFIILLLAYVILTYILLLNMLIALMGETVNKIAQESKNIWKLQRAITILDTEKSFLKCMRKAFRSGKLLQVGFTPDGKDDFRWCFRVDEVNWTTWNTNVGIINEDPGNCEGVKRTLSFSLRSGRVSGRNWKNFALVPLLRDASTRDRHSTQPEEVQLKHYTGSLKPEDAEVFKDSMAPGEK
T3 sequence (O75762 whole entry): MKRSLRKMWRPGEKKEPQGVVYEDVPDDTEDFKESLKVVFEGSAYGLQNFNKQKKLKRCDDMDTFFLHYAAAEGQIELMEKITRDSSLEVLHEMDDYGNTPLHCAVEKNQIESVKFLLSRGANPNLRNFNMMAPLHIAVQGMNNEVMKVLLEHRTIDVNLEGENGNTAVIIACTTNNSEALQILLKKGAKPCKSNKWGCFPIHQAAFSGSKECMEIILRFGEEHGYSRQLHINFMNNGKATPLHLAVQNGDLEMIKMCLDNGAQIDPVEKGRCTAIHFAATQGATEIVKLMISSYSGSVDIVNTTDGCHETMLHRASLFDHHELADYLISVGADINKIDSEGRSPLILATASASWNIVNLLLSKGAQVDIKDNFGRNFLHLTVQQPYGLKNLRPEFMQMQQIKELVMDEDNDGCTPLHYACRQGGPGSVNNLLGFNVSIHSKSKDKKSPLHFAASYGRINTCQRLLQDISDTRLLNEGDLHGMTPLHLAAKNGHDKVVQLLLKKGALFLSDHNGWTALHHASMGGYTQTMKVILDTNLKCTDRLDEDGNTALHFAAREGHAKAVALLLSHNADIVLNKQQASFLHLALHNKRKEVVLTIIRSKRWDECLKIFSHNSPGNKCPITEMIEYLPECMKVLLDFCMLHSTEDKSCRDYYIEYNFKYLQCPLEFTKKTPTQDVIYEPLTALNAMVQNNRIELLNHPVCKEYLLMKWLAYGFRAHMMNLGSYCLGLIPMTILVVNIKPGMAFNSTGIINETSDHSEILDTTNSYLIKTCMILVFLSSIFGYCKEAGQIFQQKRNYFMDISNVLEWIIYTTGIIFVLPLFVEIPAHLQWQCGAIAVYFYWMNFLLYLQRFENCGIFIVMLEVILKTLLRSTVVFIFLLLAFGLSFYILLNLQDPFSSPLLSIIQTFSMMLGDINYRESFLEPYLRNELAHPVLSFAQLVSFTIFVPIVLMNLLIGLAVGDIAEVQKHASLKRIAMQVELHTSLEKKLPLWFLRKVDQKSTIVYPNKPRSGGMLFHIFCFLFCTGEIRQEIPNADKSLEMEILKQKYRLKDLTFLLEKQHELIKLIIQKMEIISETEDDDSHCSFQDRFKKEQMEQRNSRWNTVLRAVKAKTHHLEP

Row | relative potency to l-menthol (menthol = 1) (human TRPM8) | SMILES | also measured
1 | 0.9 | CCC(C)P(=O)(CCC(C)C)C(C)CC (stereo not shown) [1-di-sec-butylphosphoryl-3-methyl-butane] | 
2 | 0.3 | CCCCP(=O)(C(C)CC)C(C)CC (stereo not shown) [1-di-sec-butylphosphoryl-4] | 
3 | 3.4 | CCCCCCCP(=O)(C(C)CC)C(C)CC (stereo not shown) [1-di-sec-butylphosphoryl-heptane] | 
4 | 4.7 | CCCCCCP(=O)(C(C)CC)C(C)CC (stereo not shown) [1-di-sec-butylphosphoryl-hexane] | 
5 | 2.9 | CCCCCCCCP(=O)(C(C)CC)C(C)CC (stereo not shown) [1-di-sec-butylphosphoryl-octane] | 
6 | 2.2 | CCCCCP(=O)(C(C)CC)C(C)CC (stereo not shown) [1-di-sec-butylphosphoryl-pentane] | lidocaine-like activity on hNav1.7 [1]: did not have lidocaine-like activity; corneal sensitivity (cornea): not affected
7 | 0.2 | CCCCCP(=O)(CC(C)C)CC(C)C [1-diisobutylphosphoryl-pentane] | 
8 | 5.4 | CCCCCCCP(=O)(C(C)C)C(C)C [1-diisopropylphosphoryl-heptane] | 
9 | 1.6 | CCCCCCP(=O)(C(C)C)C(C)C [1-diisopropylphosphoryl-hexane] | 
10 | 5.4 | CCCCCCCCP(=O)(C(C)C)C(C)C [1-diisopropylphosphoryl-octane] | 
11 | 0.7 | CCCCCP(=O)(C(C)C)C(C)C [1-diisopropylphosphoryl-pentane] | 
12 |  | O=C1NC(c2cccc([N+](=O)[O-])c2)=CCN1c1ccccc1O [Icilin, icilin] | solubility in ophthalmic vehicles [2]: not soluble; sensation on the eyelids (eye; anecdotal): punctate and long-lasting cooling
13 |  | COc1cc(CNC(=O)CCCC/C=C/C(C)C)ccc1O [capsaicin, reference compound] | activation of TRPV1 (calcium response) (mouse TRPV1): active
14 |  | CC(C)[C@@H]1CC[C@@H](C)C[C@H]1O [l-menthol, reference compound] | calcium response of Trpm8 EGFPf/+ neurons (TRPM8-sensory neurons): sensitive; eye sensation after menthol solutions (eye): stinging followed by a brief episode of cooling
15 |  | C=CCN=C=S [mustard oil, reference compound] | activation of TRPA1 (calcium response) (human TRPA1): active

From paper PMC5485613, “A novel TRPM8 agonist relieves dry eye discomfort” (BMC Ophthalmology, 2017)
